{"source": "patent US12458647B2", "about": "“Macrocyclic derivative and use thereof” (Guangzhou Joyo Pharmatech Co., Ltd., priority 2022, dated 2025)", "key": {"[1]": {"test_system": "HCT116 cells", "assay": "In vitro cell proliferation experiment (5 days), HCT116", "type": "cell-based", "conditions": "HCT116, 5 days; read-out: Inhibitory Activity IC50", "procedure": "(§1) RPMI 1640 medium, DMEM, Ham's F12 medium, F12K medium, IMDM and penicillin/streptomycin antibiotics were purchased from Gibco, fetal bovine serum was purchased from Hyclone, Envision multilabel plate reader (PerkinElmer). […]\n(§2) The test compound was diluted by 5-fold to 8 concentrations with a pipette, i.e., from 2 mM to 25.6 nM, and replicate wells were set up for the experiment. […] Another cell plate was prepared, and the signal value was read as the maximum value (the maximum value in the following equation) on the day of dosing for data analysis.\n(§3) 50 μL of cell viability chemiluminescent detection reagent was added to the cell plate and incubated at room temperature for 30 minutes to stabilize the luminescence signal. A multilabel plate reader was used for reading. […]"}, "[2]": {"test_system": "A375 cell line", "assay": "In vitro cell proliferation experiment (5 days), A375 (wild-type independent cell line)", "type": "cell-based", "conditions": "A375, 5 days; read-out: Inhibitory Activity IC50", "procedure": "as §1, §2, §3"}, "[3]": {"test_system": "human pancreatic cancer PK59 cells", "assay": "In vivo pharmacodynamic study, PK59 subcutaneous xenograft tumor model in BALB/c nude mice", "conditions": "gavage once daily", "procedure": "To study the in vivo efficacy of a compound of the present disclosure in BALB/c nude mice subcutaneous xenograft tumor model of human pancreatic cancer PK59 cells.\nLaboratory animals: Female BALB/c nude mice, 6-8 weeks old, weighing 18-22 g; supplier. Beijing Vital River Laboratory Animal Technology Co., Ltd.\n(1) Cell culture. Human pancreatic cancer PK59 cells were cultured in vitro in a monolayer, and the culture conditions were 10% fetal bovine serum added to Gibco RMPI1640 medium, incubated at 37° C. in a 5% CO2 incubator. Routine passage was performed twice a week with trypsin-EDTA for digestion. When the cell saturation was 80%-90% and the required number was reached, the cells were collected, counted, and inoculated.\n(2) Tumour cell inoculation and grouping: 0.2 mL (2×10^6) of PK59 cells (Matrigel was added in a volume ratio of 1:1) was subcutaneously inoculated into the right back of each mouse, and dosing was started when the mean tumor volume reached about 104.4 mm^3, with 6 animals in each group.\nThe vehicle was 5% DMSO/10% solutol/85% water. Control group: The vehicle was administered via gavage once daily at a dose of 10 μL/g; treatment group: After dissolving the test compound in the vehicle, the compound was administered by gavage once daily.\n(3) The tumor diameter was measured with a vernier caliper twice weekly, and the tumor volume (V) was calculated. The formula is: V=0.5a×b^2, where a and b are the long and short diameters of the tumor, respectively. The tumor inhibitory efficacy of the test compound was evaluated by the tumor growth inhibition rate (TGI). The calculation formula is: TGI %=[1−(Mean tumor volume at the end of dosing in a treatment group−Mean tumor volume at the start of dosing in this treatment group)/(Mean tumor volume at the end of treatment in the vehicle control group−Mean tumor volume at the start of treatment in the vehicle control group)×100%."}}, "data": [{"compound": "CCn1c(-c2cc(N3CCN(C)CC3)cnc2C(C)OC)c2c3cc(ccc31)-c1csc(n1)CC(NC(=O)C1C(C)C1C)C(=O)N1NC(C(=O)OCC(C)(C)C2)C2CC1C2", "note": "(single isomer, unassigned) [Compound 6A]", "values": [{"measurement": "IC50", "setting": "[1]", "result": 5.5, "unit": "nM"}, {"measurement": "IC50", "setting": "[2]", "result": "> 6000", "unit": "nM"}, {"measurement": "Tumour Volume (mm^3) Day 1", "setting": "[3]; 0.5 mpk", "result": 103.6, "unit": "mm^3"}, {"measurement": "Tumour Volume (mm^3) Day 7", "setting": "[3]; 0.5 mpk", "result": 111.0, "unit": "mm^3"}, {"measurement": "Tumour Volume (mm^3) Day 14", "setting": "[3]; 0.5 mpk", "result": 112.4, "unit": "mm^3"}, {"measurement": "TGI (%) Day 22", "setting": "[3]; 0.5 mpk", "result": 101, "unit": "%"}, {"measurement": "Tumour Volume (mm^3) Day 22", "setting": "[3]; 0.5 mpk", "result": 96.4, "unit": "mm^3"}, {"measurement": "Tumour Volume (mm^3) Day 1", "setting": "[3]; 2 mpk", "result": 103.5, "unit": "mm^3"}, {"measurement": "Tumour Volume (mm^3) Day 7", "setting": "[3]; 2 mpk", "result": 64.3, "unit": "mm^3"}, {"measurement": "Tumour Volume (mm^3) Day 14", "setting": "[3]; 2 mpk", "result": 45.5, "unit": "mm^3"}, {"measurement": "TGI (%) Day 22", "setting": "[3]; 2 mpk", "result": 107, "unit": "%"}, {"measurement": "Tumour Volume (mm^3) Day 22", "setting": "[3]; 2 mpk", "result": 43.3, "unit": "mm^3"}, {"measurement": "Tumour Volume (mm^3) Day 1", "setting": "[3]; 5 mpk", "result": 103.8, "unit": "mm^3"}, {"measurement": "Tumour Volume (mm^3) Day 7", "setting": "[3]; 5 mpk", "result": 65.0, "unit": "mm^3"}, {"measurement": "Tumour Volume (mm^3) Day 14", "setting": "[3]; 5 mpk", "result": 35.7, "unit": "mm^3"}, {"measurement": "TGI (%) Day 22", "setting": "[3]; 5 mpk", "result": 108, "unit": "%"}, {"measurement": "Tumour Volume (mm^3) Day 22", "setting": "[3]; 5 mpk", "result": 34.3, "unit": "mm^3"}]}]}
